Laboratory results from ChEMBL document CHEMBL4507291 (2021).

Assays:
[1] = molecular target: Leucine-rich repeat serine/threonine-protein kinase 2 (Homo sapiens, UniProt Q5S007); experiment: LRRK2 Biochemical Assay
[2] = molecular target: T1, Protein kinase C epsilon type (Homo sapiens) (UniProt Q02156); experiment: PRKCE (PKC epsilon) Kinase screen; conditions: Compound concentration 1.0 uM
T1 sequence (whole entry): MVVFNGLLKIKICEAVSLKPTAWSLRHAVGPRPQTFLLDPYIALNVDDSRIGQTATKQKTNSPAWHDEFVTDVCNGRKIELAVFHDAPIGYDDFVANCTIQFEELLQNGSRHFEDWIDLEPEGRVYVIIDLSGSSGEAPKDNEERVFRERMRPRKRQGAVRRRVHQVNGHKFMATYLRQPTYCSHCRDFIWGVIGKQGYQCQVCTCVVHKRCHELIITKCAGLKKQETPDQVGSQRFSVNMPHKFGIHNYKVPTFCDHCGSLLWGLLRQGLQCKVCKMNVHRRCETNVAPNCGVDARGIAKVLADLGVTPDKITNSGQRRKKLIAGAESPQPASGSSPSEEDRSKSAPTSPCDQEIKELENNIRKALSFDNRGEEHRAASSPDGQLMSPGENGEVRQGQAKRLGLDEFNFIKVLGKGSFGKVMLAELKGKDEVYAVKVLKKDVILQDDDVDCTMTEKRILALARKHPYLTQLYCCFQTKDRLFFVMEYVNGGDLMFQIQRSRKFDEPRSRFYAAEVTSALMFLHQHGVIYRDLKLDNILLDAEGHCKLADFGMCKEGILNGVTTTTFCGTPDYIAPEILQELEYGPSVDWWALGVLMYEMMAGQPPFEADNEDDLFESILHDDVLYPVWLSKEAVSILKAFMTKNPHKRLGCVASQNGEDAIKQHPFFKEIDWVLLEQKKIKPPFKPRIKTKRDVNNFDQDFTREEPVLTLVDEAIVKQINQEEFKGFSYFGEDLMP

[3] = molecular target: RAC-alpha serine/threonine-protein kinase (Homo sapiens) (UniProt P31749); experiment: AKT1 (PKB alpha) Kinase screen; conditions: Compound concentration 1.0 uM
Chain of RAC-alpha serine/threonine-protein kinase (Homo sapiens) (P31749 whole entry, the tested form may be a part): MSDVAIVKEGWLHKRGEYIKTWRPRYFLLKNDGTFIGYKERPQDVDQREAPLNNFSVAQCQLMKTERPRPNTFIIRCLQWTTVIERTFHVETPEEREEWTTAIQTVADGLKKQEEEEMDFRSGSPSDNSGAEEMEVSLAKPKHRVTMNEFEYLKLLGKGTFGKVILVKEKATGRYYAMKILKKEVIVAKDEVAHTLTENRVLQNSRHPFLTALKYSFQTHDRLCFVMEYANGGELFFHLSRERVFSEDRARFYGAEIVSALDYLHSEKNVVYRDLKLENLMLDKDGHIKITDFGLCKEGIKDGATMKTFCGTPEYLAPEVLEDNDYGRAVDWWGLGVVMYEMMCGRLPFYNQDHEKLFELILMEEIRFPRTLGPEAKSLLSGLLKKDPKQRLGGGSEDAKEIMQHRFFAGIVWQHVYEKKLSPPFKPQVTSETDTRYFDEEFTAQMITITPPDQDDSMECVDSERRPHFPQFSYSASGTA

[4] = molecular target: T2, Discoidin domain-containing receptor 2 (Homo sapiens) (UniProt Q16832); experiment: DDR2 Kinase screen; conditions: Compound concentration 1.0 uM
T2 sequence (whole entry): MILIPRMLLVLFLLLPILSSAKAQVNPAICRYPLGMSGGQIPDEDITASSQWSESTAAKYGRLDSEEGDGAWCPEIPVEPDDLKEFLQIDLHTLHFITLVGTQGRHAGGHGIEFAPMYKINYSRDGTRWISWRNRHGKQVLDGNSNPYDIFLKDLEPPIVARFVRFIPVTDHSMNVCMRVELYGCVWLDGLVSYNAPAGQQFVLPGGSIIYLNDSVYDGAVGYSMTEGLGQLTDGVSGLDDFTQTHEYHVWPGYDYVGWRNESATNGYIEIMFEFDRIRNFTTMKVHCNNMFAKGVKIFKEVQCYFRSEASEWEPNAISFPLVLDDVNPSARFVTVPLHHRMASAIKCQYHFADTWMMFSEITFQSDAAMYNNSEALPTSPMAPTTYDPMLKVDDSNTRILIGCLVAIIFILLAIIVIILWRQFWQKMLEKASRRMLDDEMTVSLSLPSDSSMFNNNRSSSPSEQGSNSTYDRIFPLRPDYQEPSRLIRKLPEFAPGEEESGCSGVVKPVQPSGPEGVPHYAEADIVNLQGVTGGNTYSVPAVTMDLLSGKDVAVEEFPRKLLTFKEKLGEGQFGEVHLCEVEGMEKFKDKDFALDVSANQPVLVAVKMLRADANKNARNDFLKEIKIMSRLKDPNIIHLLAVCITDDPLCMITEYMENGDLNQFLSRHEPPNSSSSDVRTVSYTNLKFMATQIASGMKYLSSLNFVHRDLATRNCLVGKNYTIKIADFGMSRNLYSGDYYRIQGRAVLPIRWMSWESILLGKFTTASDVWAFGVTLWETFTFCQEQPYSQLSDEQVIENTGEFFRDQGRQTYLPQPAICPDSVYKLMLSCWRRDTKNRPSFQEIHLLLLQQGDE

[5] = tested on: Mast/stem cell growth factor receptor Kit (Homo sapiens), P10721 [T670I]; experiment: KIT T670I Kinase screen; conditions: Compound concentration 1.0 uM
Chain of Mast/stem cell growth factor receptor Kit (Homo sapiens), P10721 [T670I] (P10721 whole entry T670I): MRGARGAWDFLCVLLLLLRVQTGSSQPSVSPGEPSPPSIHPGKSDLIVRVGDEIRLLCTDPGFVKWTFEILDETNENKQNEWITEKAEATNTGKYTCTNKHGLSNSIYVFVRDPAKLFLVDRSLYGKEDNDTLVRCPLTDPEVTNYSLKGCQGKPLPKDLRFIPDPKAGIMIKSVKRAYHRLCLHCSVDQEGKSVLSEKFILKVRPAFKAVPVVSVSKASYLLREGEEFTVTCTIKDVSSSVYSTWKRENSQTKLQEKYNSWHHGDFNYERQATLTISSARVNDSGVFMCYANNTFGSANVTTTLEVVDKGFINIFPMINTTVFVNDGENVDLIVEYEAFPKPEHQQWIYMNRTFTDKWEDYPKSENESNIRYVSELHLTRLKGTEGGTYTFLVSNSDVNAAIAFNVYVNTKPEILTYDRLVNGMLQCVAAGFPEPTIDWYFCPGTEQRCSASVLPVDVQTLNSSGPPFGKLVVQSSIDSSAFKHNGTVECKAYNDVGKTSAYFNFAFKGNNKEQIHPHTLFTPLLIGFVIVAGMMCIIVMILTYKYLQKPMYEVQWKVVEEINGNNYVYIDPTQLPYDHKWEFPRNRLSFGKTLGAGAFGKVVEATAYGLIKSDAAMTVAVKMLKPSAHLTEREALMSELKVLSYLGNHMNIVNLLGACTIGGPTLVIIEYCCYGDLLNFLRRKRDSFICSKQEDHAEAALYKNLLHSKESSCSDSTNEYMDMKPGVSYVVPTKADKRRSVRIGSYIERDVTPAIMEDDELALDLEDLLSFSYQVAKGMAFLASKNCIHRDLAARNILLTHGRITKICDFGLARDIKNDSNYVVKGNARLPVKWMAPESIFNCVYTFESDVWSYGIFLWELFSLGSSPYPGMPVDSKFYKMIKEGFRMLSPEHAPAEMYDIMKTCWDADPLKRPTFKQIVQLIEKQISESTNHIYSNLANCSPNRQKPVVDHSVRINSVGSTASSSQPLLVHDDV

[6] = molecular target: T3, Tyrosine-protein kinase ZAP-70 (Homo sapiens) (UniProt P43403); experiment: ZAP70 Kinase screen; conditions: Compound concentration 1.0 uM
T3 sequence (whole entry): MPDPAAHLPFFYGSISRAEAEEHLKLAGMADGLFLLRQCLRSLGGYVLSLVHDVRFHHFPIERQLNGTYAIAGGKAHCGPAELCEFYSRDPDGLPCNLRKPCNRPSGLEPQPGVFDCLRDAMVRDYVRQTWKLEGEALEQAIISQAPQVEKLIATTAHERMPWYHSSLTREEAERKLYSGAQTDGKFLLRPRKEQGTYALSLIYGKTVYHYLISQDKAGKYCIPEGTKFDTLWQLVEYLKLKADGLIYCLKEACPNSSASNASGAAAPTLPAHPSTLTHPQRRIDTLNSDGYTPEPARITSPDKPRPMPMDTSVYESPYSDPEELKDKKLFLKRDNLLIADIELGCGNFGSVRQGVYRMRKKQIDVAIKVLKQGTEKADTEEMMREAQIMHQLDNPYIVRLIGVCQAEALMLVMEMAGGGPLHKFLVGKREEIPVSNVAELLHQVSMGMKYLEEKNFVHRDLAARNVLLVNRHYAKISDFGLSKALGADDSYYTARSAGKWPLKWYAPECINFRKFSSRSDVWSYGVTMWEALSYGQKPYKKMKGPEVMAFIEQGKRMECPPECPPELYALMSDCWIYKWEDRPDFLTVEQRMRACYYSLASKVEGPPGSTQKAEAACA

[7] = molecular target: Calcium/calmodulin-dependent protein kinase type II subunit beta (Homo sapiens) (UniProt Q13554); experiment: CAMK2B (CaMKII beta) Kinase screen; conditions: Compound concentration 1.0 uM
Chain of Calcium/calmodulin-dependent protein kinase type II subunit beta (Homo sapiens) (Q13554 whole entry): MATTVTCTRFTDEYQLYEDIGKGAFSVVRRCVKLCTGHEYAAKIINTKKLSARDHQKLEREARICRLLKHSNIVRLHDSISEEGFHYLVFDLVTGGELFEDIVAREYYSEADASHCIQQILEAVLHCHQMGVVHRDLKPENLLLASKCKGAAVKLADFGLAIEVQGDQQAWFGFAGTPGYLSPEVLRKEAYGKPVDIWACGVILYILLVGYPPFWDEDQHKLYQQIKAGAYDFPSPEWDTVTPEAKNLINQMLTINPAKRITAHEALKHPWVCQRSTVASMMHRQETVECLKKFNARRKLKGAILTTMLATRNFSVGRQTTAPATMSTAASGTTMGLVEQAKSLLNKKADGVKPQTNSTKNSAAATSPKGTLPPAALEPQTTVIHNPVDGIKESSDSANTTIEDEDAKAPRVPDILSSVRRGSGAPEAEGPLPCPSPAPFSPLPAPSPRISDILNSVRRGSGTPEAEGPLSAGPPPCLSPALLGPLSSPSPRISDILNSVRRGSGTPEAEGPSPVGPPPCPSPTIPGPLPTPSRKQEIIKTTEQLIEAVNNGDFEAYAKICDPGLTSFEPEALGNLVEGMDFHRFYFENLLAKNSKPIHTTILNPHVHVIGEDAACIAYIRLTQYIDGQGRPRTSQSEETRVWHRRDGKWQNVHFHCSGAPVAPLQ

[8] = molecular target: Mitogen-activated protein kinase 14 (Homo sapiens) (UniProt Q16539); experiment: MAPK14 (p38 alpha) Direct Kinase screen; conditions: Compound concentration 1.0 uM
Chain of Mitogen-activated protein kinase 14 (Homo sapiens) (Q16539 whole entry): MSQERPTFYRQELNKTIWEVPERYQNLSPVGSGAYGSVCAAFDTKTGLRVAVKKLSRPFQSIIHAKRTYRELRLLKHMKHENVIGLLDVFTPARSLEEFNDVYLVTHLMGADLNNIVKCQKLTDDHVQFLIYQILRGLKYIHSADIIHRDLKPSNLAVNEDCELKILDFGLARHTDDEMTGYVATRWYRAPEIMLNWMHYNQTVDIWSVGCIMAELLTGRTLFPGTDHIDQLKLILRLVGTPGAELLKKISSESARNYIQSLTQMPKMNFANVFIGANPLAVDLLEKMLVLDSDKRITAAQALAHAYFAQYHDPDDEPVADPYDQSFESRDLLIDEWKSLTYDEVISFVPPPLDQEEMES

[9] = molecular target: 5-hydroxytryptamine receptor 2A (Homo sapiens) (UniProt P28223); conditions: Compound concentration 10.0 uM
Chain of 5-hydroxytryptamine receptor 2A (Homo sapiens) (P28223 whole entry): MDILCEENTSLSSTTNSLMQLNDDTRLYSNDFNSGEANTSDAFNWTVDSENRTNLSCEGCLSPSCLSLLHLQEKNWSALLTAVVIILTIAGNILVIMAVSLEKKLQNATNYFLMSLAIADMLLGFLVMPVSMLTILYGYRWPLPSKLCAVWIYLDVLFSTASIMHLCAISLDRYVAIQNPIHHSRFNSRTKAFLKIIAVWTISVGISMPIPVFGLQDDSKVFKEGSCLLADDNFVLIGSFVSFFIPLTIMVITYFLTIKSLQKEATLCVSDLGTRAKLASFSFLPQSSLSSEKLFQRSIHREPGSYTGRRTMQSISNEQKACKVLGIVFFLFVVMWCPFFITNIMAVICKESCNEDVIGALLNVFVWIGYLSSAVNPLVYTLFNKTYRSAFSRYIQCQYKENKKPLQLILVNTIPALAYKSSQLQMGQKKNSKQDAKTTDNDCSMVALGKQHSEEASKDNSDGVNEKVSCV

[10] = molecular target: Adrenomedullin receptor AM1; CALCRL/RAMP2 (Homo sapiens) (UniProt O60895+Q16602); experiment: Adrenomedullin AM1 Eurofins-Panlabs radioligand binding assay; assay type: protein-complex assay; conditions: Compound concentration 10.0 uM
[11] = molecular target: Estrogen receptor (Homo sapiens) (UniProt P03372); conditions: Compound concentration 10.0 uM
Chain of Estrogen receptor (Homo sapiens) (P03372 whole entry): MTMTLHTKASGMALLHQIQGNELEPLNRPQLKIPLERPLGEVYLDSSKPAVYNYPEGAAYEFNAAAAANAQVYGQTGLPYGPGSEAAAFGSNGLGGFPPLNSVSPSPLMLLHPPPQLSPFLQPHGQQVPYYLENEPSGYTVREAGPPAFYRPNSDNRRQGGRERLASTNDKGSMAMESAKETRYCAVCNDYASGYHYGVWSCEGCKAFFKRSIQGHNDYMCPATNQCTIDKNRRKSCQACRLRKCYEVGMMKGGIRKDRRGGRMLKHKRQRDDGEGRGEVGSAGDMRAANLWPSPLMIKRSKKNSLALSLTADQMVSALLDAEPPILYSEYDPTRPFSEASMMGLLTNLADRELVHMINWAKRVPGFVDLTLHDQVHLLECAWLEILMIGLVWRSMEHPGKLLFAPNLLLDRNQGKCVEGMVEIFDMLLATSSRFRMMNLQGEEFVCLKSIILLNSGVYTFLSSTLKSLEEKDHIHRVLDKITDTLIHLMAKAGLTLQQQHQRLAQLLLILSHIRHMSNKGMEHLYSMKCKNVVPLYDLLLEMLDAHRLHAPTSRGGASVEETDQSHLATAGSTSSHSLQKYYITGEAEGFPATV

[12] = molecular target: Beta-3 adrenergic receptor (Homo sapiens) (UniProt P13945); conditions: Compound concentration 10.0 uM
Chain of Beta-3 adrenergic receptor (Homo sapiens) (P13945 whole entry, looked up): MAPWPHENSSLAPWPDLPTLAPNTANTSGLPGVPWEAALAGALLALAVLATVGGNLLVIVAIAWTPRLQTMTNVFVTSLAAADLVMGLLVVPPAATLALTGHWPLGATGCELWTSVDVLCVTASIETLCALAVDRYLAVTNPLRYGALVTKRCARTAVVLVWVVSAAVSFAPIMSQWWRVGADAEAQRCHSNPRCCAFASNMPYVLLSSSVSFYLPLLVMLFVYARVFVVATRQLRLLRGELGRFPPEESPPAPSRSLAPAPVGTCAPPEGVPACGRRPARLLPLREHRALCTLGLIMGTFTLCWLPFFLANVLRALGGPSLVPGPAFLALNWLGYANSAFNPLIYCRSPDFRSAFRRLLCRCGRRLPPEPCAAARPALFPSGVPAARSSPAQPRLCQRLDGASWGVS

Caspase-8 (Homo sapiens) = Caspase-8 (Homo sapiens) (UniProt Q14790); experiment: Peptidase, CASP8 (Caspase 8) Eurofins-Panlabs enzyme assay; conditions: Compound concentration 10.0 uM
[13] = molecular target: Serine/threonine-protein kinase Nek7 (Homo sapiens) (UniProt Q8TDX7); experiment: NEK7 Kinase screen; conditions: Compound concentration 1.0 uM
Chain of Serine/threonine-protein kinase Nek7 (Homo sapiens) (Q8TDX7 whole entry, looked up): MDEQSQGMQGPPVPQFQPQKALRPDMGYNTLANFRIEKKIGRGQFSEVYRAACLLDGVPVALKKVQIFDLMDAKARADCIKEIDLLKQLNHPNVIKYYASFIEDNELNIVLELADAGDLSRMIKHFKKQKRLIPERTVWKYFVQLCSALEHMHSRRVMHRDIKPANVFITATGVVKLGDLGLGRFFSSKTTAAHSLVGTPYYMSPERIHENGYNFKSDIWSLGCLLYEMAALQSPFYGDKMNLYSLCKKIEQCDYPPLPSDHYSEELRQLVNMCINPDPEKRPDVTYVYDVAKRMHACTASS

[14] = molecular target: Dual specificity tyrosine-phosphorylation-regulated kinase 4 (Homo sapiens) (UniProt Q9NR20); experiment: DYRK4 Kinase screen; conditions: Compound concentration 1.0 uM
Chain of Dual specificity tyrosine-phosphorylation-regulated kinase 4 (Homo sapiens) (Q9NR20 whole entry): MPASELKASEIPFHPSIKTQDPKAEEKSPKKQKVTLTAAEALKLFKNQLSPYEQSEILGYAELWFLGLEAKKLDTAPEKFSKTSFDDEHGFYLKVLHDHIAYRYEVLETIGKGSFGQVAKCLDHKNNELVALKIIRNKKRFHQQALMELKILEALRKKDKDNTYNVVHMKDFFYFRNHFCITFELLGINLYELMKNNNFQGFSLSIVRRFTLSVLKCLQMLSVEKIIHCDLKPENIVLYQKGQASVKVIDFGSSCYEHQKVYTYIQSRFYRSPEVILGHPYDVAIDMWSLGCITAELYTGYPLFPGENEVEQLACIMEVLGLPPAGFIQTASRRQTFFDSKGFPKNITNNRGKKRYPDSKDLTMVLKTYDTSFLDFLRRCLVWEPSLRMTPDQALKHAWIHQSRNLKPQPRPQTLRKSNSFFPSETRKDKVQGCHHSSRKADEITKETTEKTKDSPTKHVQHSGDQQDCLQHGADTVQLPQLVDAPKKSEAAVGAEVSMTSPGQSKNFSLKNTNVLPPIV

Compound	IC50 [1]	inhibition [2]	inhibition [3]	inhibition [4]	inhibition [5]	inhibition [6]	inhibition [7]	inhibition [8]	inhibition [9]	inhibition [10]	inhibition [11]	inhibition [12]	inhibition (Caspase-8 (Homo sapiens))	inhibition [13]	inhibition [14]
C[C@@H]1CN(c2cc(-c3nn(C)c4ccc(OC5(C)CC5)cc34)ncn2)C[C@H](C)O1 [MLi-2-NC]	6.48 µM (not active)	–	–	–	–	–	–	–	–	–	–	–	–	–	–
C[C@@H]1CN(c2cc(-c3n[nH]c4ccc(OC5(C)CC5)cc34)ncn2)C[C@H](C)O1 [MLi-2]	–	4.4%	6.75%	3.64%	-0.692%	10.2%	12.6%	8.11%	6%	-8%	8%	21%	7%	3.68%	1.74%
